Measured values as given in publication PMC11472058, “Trinucleotide cap analogs with triphosphate chain modifications: synthesis, properties, and evaluation as mRNA capping reagents” (Nucleic Acids Research, 2024).

Test system: BALB/c mice
Assay: In vivo translation efficacy of FLuc-encoding mRNA-LNPs (whole body bioluminescence)
Conditions: 10 μg mRNA i.v., 4, 8 and 24 h
Protocol: Two reporters were selected to determine in vivo protein production: firefly luciferase (FLuc) and human erythropoietin (hEPO). The mRNA encoding each gene was obtained by IVT using T7 RNA polymerase for co-transcriptional capping with m^7Gppp^5′SAmpG and m^7GpppAmpG as the reference cap structure. 500 μl or 1000 μl of the IVT mix (for obtaining mRNA encoding hEPO or FLuc, respectively) contained following components at indicated final concentration: transcription buffer with 2 mM spermidine and Bis-Tris pH 6.5, 1 U/μl RNase inhibitor (RiboLock, ThermoFisher Scientific), 5 mM ATP, CTP and UTP, 4 mM GTP, 10 mM DTT, 25 mM MgCl2, 0.002 U/μl inorganic pyrophosphatase (ThermoFisher Scientific), 10 mM m^7GpppAmpG or m^7Gppp^5’SAmpG, 40 ng/μl linearized plasmid as the DNA template and 0.125 μg/μl T7 RNA polymerase (in-house prepared). All components were gently mixed by pipetting and incubated for one hour at 37°C. After DNA template removal, obtained mRNA was initially purified using oligo(dT)25 resin, as previously described, and concentrated by ultrafiltration (Amicon Ultra-15 50K or 100K, Millipore) prior loading on preparative column. […] Eluate quality was analyzed on 1 × TBE 1.2% agarose gel, and the fractions containing mRNA of the highest purity were combined, desalted by ultrafiltration (Amicon Ultra-15 50K or 100K, Millipore), and precipitated. […]

## CO[C@@H]1[C@H](OP(=O)(O)OC[C@H]2O[C@@H](n3cnc4c(=O)[nH]c(N)nc43)[C@H](O)[C@@H]2O)[C@@H](CSP(=O)([O-])OP(=O)(O)OP(=O)(O)OC[C@H]2O[C@@H](n3c[n+](C)c4c(O)nc(N)nc43)[C@H](O)[C@@H]2O)O[C@H]1n1cnc2c(N)ncnc21 [Compound 8, m^7Gppp^5’SAmpG]
GeneVoy LNP
  FLuc protein expression (whole body bioluminescence) versus m^7GpppAmpG-capped mRNA (in words): the effect was the opposite
SM-102 LNP
  FLuc protein expression (whole body bioluminescence) versus m^7GpppAmpG-capped mRNA (in words): no significant differences
